Experimental data reported in PMC9000575, “Solution Equilibrium Studies on Salicylidene Aminoguanidine Schiff Base Metal Complexes: Impact of the Hybridization with L-Proline on Stability, Redox Activity and Cytotoxicity” (Molecules, 2022).

How the values were obtained:
[1] = stability constants of Fe(III) complexes by pH-potentiometry; format: physicochemical; settings: 30% (v/v) DMSO/H2O; for pFe(III)* (−logΣ[Fe(III)i(OH)j]): calculated at pH 7.4, cFe = 1 μM, cligand = 10 μM
Procedure: The pH-potentiometric measurements for the determination of the proton dissociation constants of the ligands and the overall stability constants of the metal complexes were carried out at 25.0 ± 0.1 °C in water or in 30% (v/v) DMSO/H2O as solvent and at an ionic strength of 0.10 M (KCl). The titrations were performed with carbonate-free KOH solution of known concentration (0.10 M). The concentrations of the base and the HCl were determined by pH-potentiometric titrations. An Orion 710A pH-meter equipped with a Metrohm combined electrode (type 6.0234.100), and a Metrohm 665 Dosimat burette were used for the titrations. […] The average water ionization constant pKw was 13.76 ± 0.05 (water) or 14.52 ± 0.05 (30% (v/v) DMSO/H2O). The pH-potentiometric titrations were performed in the pH range 2.0–12.5. The initial volume of the samples was 10.0 mL. The ligand concentration was 2 mM and metal ion-to-ligand ratios of 1:1–1:3 were used. The accepted fitting of the titration curves was always less than 0.01 mL. Argon was always passed over the solutions during the titrations. The exact concentration of the ligand stock solutions together with the proton dissociation constants were determined by pH-potentiometric titrations with the use of the computer program HYPERQUAD [44]. It was also utilized to establish the stoichiometry of the complexes and to calculate the stability constants (β(MpLqHr)). β(MpLqHr) is defined for the general equilibrium pM + qL + rH ⇋ MpLqHr as β(MpLqHr) = [MpLqHr]/[M]^p[L]^q[H]^r, where M denotes the metal ion and L the completely deprotonated ligand. In all calculations exclusively, titration data were used from experiments in which no precipitate was visible in the reaction mixture.

[2] = stability constants of Cu(II) complexes from deconvolution of EPR spectra; format: physicochemical; settings: water, room temperature, I = 0.10 M (KCl)
Procedure: All EPR spectra were recorded with a BRUKER EleXsys E500 spectrometer (microwave frequency 9.54 GHz, microwave power 13 mW, modulation amplitude 5 G, modulation frequency 100 kHz, Bruker BioSpin Corporation, Billerica, MA, USA) at 77 K for the Cu(II)—SISC complexes and at room temperature for the Cu(II)—Pro-SISC-Me species. EPR spectra were recorded at different pH values at two metal-to-ligand concentration ratios: 0.25 mM Cu(II) and 0.25 mM or 0.50 mM SISC in 30% DMSO/water solution, and 1.0 mM Pro-SISC-Me and 1.0 mM or 0.5 mM Cu(II) in water. The ionic strength was adjusted with KCl (I = 0.1 M). KOH solution was added to the stock solution to change the pH between pH = 2.5–12.5, which was measured with a Radiometer PHM240 pH/ion Meter equipped with a Metrohm 6.0234.100 glass electrode. The isotropic EPR spectra were recorded at room temperature in a circulating system, and a Heidolph Pumpdrive 5101 peristaltic pump was used to circulate the solution from the titration vessel through a capillary tube into the cavity of the instrument. For the anisotropic EPR spectra, a pH titration was performed outside of the cavity and at selected pH values, and 200 μL samples were transferred from the titration vessel into EPR tubes and the spectra were recorded in a Dewar containing liquid nitrogen.
The anisotropic EPR spectra were analyzed with the EPR program. […]

logβ [Fe(III)L2H−1] ([1]; 25 °C, I = 0.10 M (KCl)) | logβ [Fe(III)L2H−2]− ([1]; 25 °C, I = 0.10 M (KCl)) | logβ [Fe(III)L2]+ ([1]; 25 °C, I = 0.10 M (KCl)) | logβ [Fe(III)L]2+ ([1]; 25 °C, I = 0.10 M (KCl)) | pFe(III)* (−logΣ[Fe(III)i(OH)j]) [1] | logβ [CuLH−1] [2] | logβ [CuL]+ [2] | SMILES
18.40 ± 0.07 | 8.64 ± 0.08 | 27.63 ± 0.05 | 15.25 ± 0.04 | 10.0 | 6.50 | 14.78 | Cc1cc(C=NNC(=N)N)c(O)c(CN2CCCC2C(=O)O)c1 (stereo not shown) [Pro-SISC-Me]
 |  | 27.46 ± 0.05 | 14.96 ± 0.05 | 7.9 |  |  | N=C(N)NN=Cc1ccccc1O [SISC, 2-(2-hydroxybenzylidene)hydrazinecarboximidamide]
